Patent US8173636B2, “Hydroxylthienoquinolones and related compounds as anti-infective agents” (Achillion Pharmaceuticals, Inc., priority 2009, dated 2012)
Values after ≈ are worked out from the molar mass of the structure shown.

Assays:
S. aureus ATCC 29213 = assay: Minimum inhibitory concentration (MIC) assay, broth microdilution, MSSA; format: cell-based; conditions: Staphylococcus aureus, Table I
Protocol: (§1) The antimicrobial activity of the compounds of the invention may be evaluated by a number of methods, including the following visual minimum inhibitory concentration (MIC) assay. This assay determines the minimum concentration of compound required to inhibit growth of a bacterial strain.
(§2) Whole-cell antibacterial activity is determined by broth microdilution using conditions recommended by the NCCLS (see National Committee for Clinical Laboratory Standards. 2001. Performance standards for antimicrobial susceptibility testing: 11th informational supplement. Vol. 21, no. 1, M100-S11. National Committee for Clinical Laboratory Standards, Wayne, Pa.). Test compounds are dissolved in DMSO and diluted 1:50 in Mueller-Hinton II broth (Becton-Dickinson) to produce a 256 μg/ml stock solution. In a 96-well microtiter plate, the compound solution is serially two-fold diluted in Mueller-Hinton II broth. After the compounds are diluted, a 50 μl aliquot of the test organism (˜1×10^6 cfu/mL) is added to each well of the microtiter plate. The final test concentrations ranges from 0.125-128 μg/mL. Inoculated plates are incubated in ambient air at 37° C. for 18 to 24 hours. The organisms selected for testing included laboratory strains S. aureus ATCC 29213 and E. coli ATCC 25922 (strains purchased from American Type Culture Collection, Manassas, Va.) m, S. aureus FQR700699, and Paeruginosa 27853. The minimum inhibitory concentration (MIC) is determined as the lowest concentration of compound that inhibited visible growth of the test organism.

[1] = system: fluoroquinolone-resistant S. aureus ATCC 700699; assay: Minimum inhibitory concentration (MIC) assay, broth microdilution, MRSA; format: cell-based; conditions: Staphylococcus aureus; fluoroquinolone-resistant S. aureus ATCC 700699; Table I; read-out: MRSA MIC
Protocol: as §1, §2

Row | SMILES | MIC (S. aureus ATCC 29213) [µg/mL] | MIC [1] [µg/mL]
1 | COc1c(-c2ccnc(C)c2)c(F)cc2c(=O)c3c(O)c(C#N)sc3n(C3CC3)c12 [Cmp 4, 9-cyclopropyl-6-fluoro-3-hydroxyl-8-methoxy-7-(2-methylpyridin-4-yl)-4-oxo-4,9-dihydrothieno[2,3-b]quinoline-2-carbonitrile] | 0.02 (≈ 0.0475 µM) | 0.13 (≈ 0.308 µM)
2 | COC(=O)c1sc2c(c1O)c(=O)c1cc(F)c(N3CC[C@@H](C(C)(C)N)C3)c(OC)c1n2C1CC1 [Cmp 5, (R)-methyl 7-(3-(2-aminopropan-2-yl)pyrrolidin-1-yl)-9-cyclopropyl-6-fluoro-3-hydroxyl-8-methoxy-4-oxo-4,9-dihydrothieno [2,3-b]quinoline-2-carboxylate] | 2 (≈ 4.09 µM) | 64 (≈ 131 µM)
3 | COc1c(N2CC[C@@H](C(C)(C)N)C2)c(F)cc2c(=O)c3c(O)csc3n(C3CC3)c12 [Cmp 6, (R)-7-(3-(2-aminopropan-2-yl)pyrrolidin-1-yl)-9-cyclopropyl-6-fluoro-3-hydroxyl-8-methoxythieno[2,3-b]quinolin-4(9H)-one] | 2 (≈ 4.63 µM) | 32 (≈ 74.2 µM)
4 | COC(=O)c1sc2c(c1O)c(=O)c1cc(F)c(N3CCNCC3)c(OC)c1n2C1CC1 [Cmp 7, methyl 9-cyclopropyl-6-fluoro-3-hydroxyl-8-methoxy-4-oxo-7-(piperazin-1-yl)-4,9-dihydrothieno[2,3-b] quinoline-2-carboxylate] | 3 (≈ 6.7 µM) | 32 (≈ 71.5 µM)
5 | COc1c(N2CCNCC2)c(F)cc2c(=O)c3c(O)csc3n(C3CC3)c12 [Cmp 8, 9-cyclopropyl-6-fluoro-3-hydroxyl-8-methoxy-7-(piperazin-1-yl)thieno[2,3-b]quinolin-4(9H)-one] | 32 (≈ 82.2 µM) | > 64
6 | COc1c(N2CCNCC2)c(F)cc2c(=O)c3c(O)c(C#N)sc3n(C3CC3)c12 [Cmp 9, 9-cyclopropyl-6-fluoro-3-hydroxyl-8-methoxy-4-oxo-7-(piperazin-1-yl)-4,9-dihydrothieno[2,3-b]quinoline-2-carbonitrile] | 0.06 (≈ 0.145 µM) | 0.75 (≈ 1.81 µM)

The remaining compounds from weak to strong by MIC (S. aureus ATCC 29213), led by results:

Row | MIC (S. aureus ATCC 29213) [µg/mL] | MIC [1] [µg/mL] | SMILES
7 | 64 (≈ 161 µM) |  | COc1c(N2CC[C@H](N)C2)c(F)cc2c(=O)c3c(O)c(C#N)[nH]c3n(C3CC3)c12 [Cmp 28, (S)-7-(3-aminopyrrolidin-l-yl)-9-cyclopropyl-6-fluoro-3-hydroxyl-8-methoxy-4-oxo-4,9-dihydro-1H-pyrrolo[2,3-b]quinoline-2-carbonitrile]
8 | 0.25 (≈ 0.555 µM) | 4 (≈ 8.88 µM) | N#Cc1sc2c(c1O)c(=O)c1cc(F)c(N3CCNCC3)c(OC(F)F)c1n2C1CC1 [Cmp 3, 9-cyclopropyl-8-(difluoromethoxy)-6-fluoro-3-hydroxyl-4-oxo-7-(piperazin-1-yl)-4,9-dihydrothieno[2,3-b]quinoline-2-carbonitrile]
9 | 0.06 (≈ 0.137 µM) | 0.42 (≈ 0.958 µM) | COc1c(N2CC[C@@H](C(C)(C)N)C2)ccc2c(=O)c3c(O)c(C#N)sc3n(C3CC3)c12 [Cmp 2, (R)-7-(3-(2-aminopropan-2-yl)pyrrolidin-1-yl)-9-cyclopropyl-3-hydroxyl-8-methoxy-4-oxo-4,9-dihydrothieno[2,3-b]quinoline-2-carbonitrile]
10 | 0.02 (≈ 0.0409 µM) | 0.13 (≈ 0.266 µM) | COc1c(N2CC[C@@H]([C@H](C)NCCF)C2)c(F)cc2c(=O)c3c(O)c(C#N)sc3n(C3CC3)c12 [Cmp 1, 9-cyclopropyl-6-fluoro-7-((R)-3-((S)-1-(2-fluoroethylamino)ethyl)pyrrolidin-1-yl)-3-hydroxyl-8-methoxy-4-oxo-4,9-dihydrothieno[2,3-b]quinoline-2-carbonitrile]
11 | 0.02 (≈ 0.0438 µM) | 0.094 (≈ 0.206 µM) | COc1c(N2CC[C@@H](C(C)(C)N)C2)c(F)cc2c(=O)c3c(O)c(C#N)sc3n(C3CC3)c12 [Cmp 10, (R)-7-(3-(2-aminopropan-2-yl)pyrrolidin-1-yl)-9-cyclopropyl-6-fluoro-3-hydroxyl-8-methoxy-4-oxo-4,9-dihydrothieno [2,3-b]quinoline-2-carbonitrile]
